Where “and” joins values, the source holds several entries; their conditions need not be identical. Identical values can stand only once.
Tests used:
Jurkat T cells = test: Cell viability assay (CCK-8), Jurkat T cells; type: cell-based, human; conditions: Jurkat, in % (unit assumed)
Method: (§1) Cells were seeded in 96-well plates ranging from 2000 to 15,000 cells per well depending on different cell lines and treated with antibiotics in serial dilutions for 72 h (120 h for the preliminary assays) in a humidified incubator (37 °C, 5% CO2) in 100 μl medium (DMEM with 10% FBS, 2.05 mM L-glutamine (Sigma) for Hek293 and Hela; RPMI-1640 with 10% FBS, 2.05 mM L-glutamine (Sigma), and 55 μM 2-ME (Gibco) for Jurkat T cells and PBMCs). Based on preliminary tests, the number of cells per well was optimized to 2000 for Hela and Hek293, 6000 for Jurkat T cells, and 15,000 for PBMCs. The stocks of antibiotics were prepared by dissolving in DMSO. As control, the same amount of DMSO was added to the non-treated groups. Serial drug dilutions were prepared in the corresponding medium to provide a total of 9 concentrations up to 300 μM for tetracyclines and up to 900 μM for additional bacterial protein synthesis inhibitors. After drug treatment, 10% CCK-8 (Cell Counting Kit-8, Sigma Aldrich) (10 μl per well) of the total volume was added to the cells and incubated for 1–4 h depending on cell lines (1 h for Hela and Hek293; 3 h for Jurkat T cells; 4 h for PBMCs) before the evaluation of the effect of antibiotics on cell viability. […] Results were visually confirmed under the light microscope. Each treatment was performed in technical repeats. Dose-response curves were plotted, mean ± SEM was shown, and half maximal inhibitory concentration (IC50) values were calculated in GraphPad Prism.

Hek293 cells = test: Cell viability assay (CCK-8), Hek293 cells; type: cell-based, human; conditions: in % (unit assumed)
Method: as §1

HeLa cells = test: Cell viability assay (CCK-8), HeLa cells; type: cell-based; conditions: Hela, in % (unit assumed)
Method: as §1

PBMCs = test: Cell viability assay (CCK-8), PBMCs; type: cell-based, human; conditions: PBMCs, 72 h, Fig. 1A, in % (unit assumed)
Method: as §1, with “Buffy coats were ordered from anonymous blood donors at […]. […] Cells” for “Cells”, “1-4” for “1–4”

Compound	cell vialibity normalized to Vehicle (DMSO) (Jurkat T cells; dose 0.137174 μM)	cell vialibity normalized to Vehicle (DMSO) (Jurkat T cells; dose 0.411523 μM)	cell vialibity normalized to Vehicle (DMSO) (Jurkat T cells; dose 1.23457 μM)	cell vialibity normalized to Vehicle (DMSO) (Jurkat T cells; dose 3.7037 μM)	cell vialibity normalized to Vehicle (DMSO) (Jurkat T cells; dose 11.1111 μM)	cell vialibity normalized to Vehicle (DMSO) (Jurkat T cells; dose 33.3333 μM)	cell vialibity normalized to Vehicle (DMSO) (Hek293 cells; HEK293, dose 0.137174 μM)	cell vialibity normalized to Vehicle (DMSO) (Hek293 cells; HEK293, dose 0.411523 μM)	cell vialibity normalized to Vehicle (DMSO) (Hek293 cells; HEK293, dose 1.23457 μM)	cell vialibity normalized to Vehicle (DMSO) (Hek293 cells; HEK293, dose 11.1111 μM)	cell vialibity normalized to Vehicle (DMSO) (Hek293 cells; HEK293, dose 33.3333 μM)	cell vialibity normalized to Vehicle (DMSO) (Hek293 cells; HEK293, dose 100 μM)	cell vialibity normalized to Vehicle (DMSO) (Hek293 cells; HEK293, dose 300 μM)	cell vialibity normalized to Vehicle (DMSO) (Hek293 cells; HEK293, dose 900 μM)	cell vialibity normalized to Vehicle (DMSO) (HeLa cells; dose 0.137174 μM)	cell vialibity normalized to Vehicle (DMSO) (HeLa cells; dose 0.411523 μM)	cell vialibity normalized to Vehicle (DMSO) (HeLa cells; dose 1.23457 μM)	cell vialibity normalized to Vehicle (DMSO) (HeLa cells; dose 3.7037 μM)	cell vialibity normalized to Vehicle (DMSO) (HeLa cells; dose 11.1111 μM)	cell vialibity normalized to Vehicle (DMSO) (HeLa cells; dose 33.3333 μM)	further results
C[C@H]1c2cccc(O)c2C(=O)C2=C(O)[C@]3(O)C(=O)C(C(N)=O)=C(O)[C@@H](N(C)C)[C@@H]3[C@@H](O)[C@@H]21 [DOX]	94.1176 and 108.66	95.2614 and 97.0588	97.7941 and 96.1601	99.2647 and 106.127	82.9248 and 78.6765	10.049 and 10.3758	97.7577 and 100.716	94.3943 and 94.2074	85.067 and 89.3024	79.6792 and 82.0461	56.1352 and 52.9274	25.8642 and 25.3348	21.3952 and 21.8001	5.254 and 4.351	99.8907	100.467 and 99.0837	99.4691 and 99.9582	100.07 and 93.5237	94.9721 and 92.1866	96.9079 and 96.5877	cell vialibity normalized to Vehicle (DMSO) (Jurkat T cells; dose 100 μM): 2.696 and 3.35; cell vialibity normalized to Vehicle (DMSO) (Hek293 cells; HEK293, dose 3.7037 μM): 85.4718 and 85.9078; cell vialibity normalized to Vehicle (DMSO) (HeLa cells; dose 100 μM): 97.8134 and 89.7632; cell vialibity normalized to Vehicle (DMSO) (HeLa cells; dose 300 μM): 79.6379 and 78.468; cell vialibity normalized to Vehicle (DMSO) (HeLa cells; dose 900 μM): 4.838 and 4.476
CN(C)c1cc(NC(=O)CNC(C)(C)C)c(O)c2c1C[C@H]1C[C@H]3[C@H](N(C)C)C(O)=C(C(N)=O)C(=O)[C@@]3(O)C(O)=C1C2=O [TIGE]	84.3137 and 94.7712	86.6013 and 87.2549	80.8824 and 75.3268	47.0588 and 43.6275	16.7484 and 17.0752	6.618 and 5.964	102.411 and 106.702	106.064 and 102.447	90.2128 and 81.4539	38.3156 and 41.7553	48.1383 and 50.0177	40.2704 and 46.6888	31.6312 and 31.5248	7.2695 and 4.539	99.0957 and 99.8329	99.7643 and 100.836	95.2089 and 96.0446	96.0724 and 96.0446	92.3538 and 93.0501	92.3816 and 88.3426	cell vialibity normalized to Vehicle (DMSO) (HeLa cells; dose 100 μM): 85.5606 and 88.2068; cell vialibity normalized to Vehicle (DMSO) (HeLa cells; dose 300 μM): 79.8329 and 79.3036; cell vialibity normalized to Vehicle (DMSO) (HeLa cells; dose 900 μM): 37.2702 and 29.1086
oxycycline																					cell vialibity normalized to Vehicle (DMSO) (Jurkat T cells; 72 h, dose 0.0457247 μM, Fig. 1A): 95.9551 and 99.8266 and 111.591; cell vialibity normalized to Vehicle (DMSO) (Jurkat T cells; 72 h, dose 0.137174 μM, Fig. 1A): 122.921 and 100.043 and 106.21; cell vialibity normalized to Vehicle (DMSO) (Jurkat T cells; 72 h, dose 1.23457 μM, Fig. 1A): 104.27 and 99.6099 and 104.508; cell vialibity normalized to Vehicle (DMSO) (Jurkat T cells; 72 h, dose 3.7037 μM, Fig. 1A): 87.8652 and 92.4577 and 103.45; cell vialibity normalized to Vehicle (DMSO) (Jurkat T cells; 72 h, dose 11.1111 μM, Fig. 1A): 101.124 and 98.0061 and 123.919; cell vialibity normalized to Vehicle (DMSO) (Jurkat T cells; 72 h, dose 33.3333 μM, Fig. 1A): 92.809 and 101.734 and 114.305; cell vialibity normalized to Vehicle (DMSO) (Jurkat T cells; 72 h, dose 100 μM, Fig. 1A): 28.8764 and 25.2276 and 26.6329; cell vialibity normalized to Vehicle (DMSO) (Jurkat T cells; 72 h, dose 300 μM, Fig. 1A): 15.1685 and 10.4898 and 12.0515; cell vialibity normalized to Vehicle (DMSO) (PBMCs; dose 0.0457247 μM): 99.5117 and 100.066 and 89.1698 and 120.008 and 102.707; cell vialibity normalized to Vehicle (DMSO) (PBMCs; dose 0.137174 μM): 101.938 and 102.097 and 92.5408 and 113.339 and 130.667; cell vialibity normalized to Vehicle (DMSO) (PBMCs; dose 0.411523 μM): 93.1002 and 107.019 and 97.4538 and 111.081 and 113.453; cell vialibity normalized to Vehicle (DMSO) (PBMCs; dose 1.23457 μM): 93.4625 and 104.955 and 100.95 and 107.767 and 104.422; cell vialibity normalized to Vehicle (DMSO) (PBMCs; dose 3.7037 μM): 87.0825 and 89.8101 and 98.4579 and 106.835 and 106.22; cell vialibity normalized to Vehicle (DMSO) (PBMCs; dose 11.1111 μM): 86.2319 and 86.9364 and 102.905 and 107.27 and 113.598; cell vialibity normalized to Vehicle (DMSO) (PBMCs; dose 33.3333 μM): 84.2313 and 84.0462 and 91.6801 and 95.3397 and 99.442

Reference: paper PMC12045974, “T cell toxicity induced by tigecycline binding to the mitochondrial ribosome” (Nature Communications, 2025)
